Data from patent publication US20240383904A1, “HETEROCYCLIC COMPOUNDS” (Hoffmann-La Roche Inc., priority 2021, published 2024).
pIC50: −log10 of the molar value.

Each compound was assayed against T1, MAGL (Homo sapiens, UniProt Q99685) (assay: 2-AG assay: MAGL inhibitory activity by hydrolysis of 2-arachidonoylglycerol to arachidonic acid, followed by mass spectrometry). Conditions: 15 min preincubation, 30 min reaction at RT, 8 μM 2-arachidonoylglycerol.
T1 sequence (Q99685 1-303): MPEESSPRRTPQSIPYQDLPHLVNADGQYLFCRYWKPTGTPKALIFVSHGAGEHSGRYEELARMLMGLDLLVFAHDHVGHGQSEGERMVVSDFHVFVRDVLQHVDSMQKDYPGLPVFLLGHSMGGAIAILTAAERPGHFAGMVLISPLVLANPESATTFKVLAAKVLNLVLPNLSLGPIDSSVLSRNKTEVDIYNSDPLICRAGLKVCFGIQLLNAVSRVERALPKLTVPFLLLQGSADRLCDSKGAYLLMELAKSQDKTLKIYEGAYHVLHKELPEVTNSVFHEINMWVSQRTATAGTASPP
Type: biochemical

pIC50 | Structure (SMILES)
7.04 | O=C1CCC2(CN(C(=O)N3CC4(CCN(Cc5ncc(C(F)F)s5)CC4)C3)C2)N1 [Example 348, 2-[7-[[5-(difluoromethyl)thiazol-2-yl]methyl]-2,7-diazaspiro[3.5]nonane-2-carbonyl]-2,5-diazaspiro[3.4]octan-6-one]
7.64 | O=C1CCC2(CN(C(=O)N3CC4(CC(Cc5nsc(C(F)(F)F)n5)C4)C3)C2)N1 [Example 349, 2-[6-[[5-(trifluoromethyl)-1,2,4-thiadiazol-3-yl]methyl]-2-azaspiro[3.3]heptane-2-carbonyl]-2,5-diazaspiro[3.4]octan-6-one]
6.78 | O=C1CCC2(CN(C(=O)N3CC4(CCN(Cc5cc(C(F)(F)F)[nH]n5)CC4)C3)C2)N1 [Example 350, 2-[7-[[5-(trifluoromethyl)-1H-pyrazol-3-yl]methyl]-2,7-diazaspiro[3.5]nonane-2-carbonyl]-2,5-diazaspiro[3.4]octan-6-one]
9.43 | O=C1NC2(CO1)CN(C(=O)N1CC3(CC(Cc4nc(C(F)(F)F)cs4)C3)C1)C2 [Example 351, 2-[6-[[4-(trifluoromethyl)thiazol-2-yl]methyl]-2-azaspiro[3.3]heptane-2-carbonyl]-7-oxa-2,5-diazaspiro[3.4]octan-6-one]
9.82 | Cn1ncc(CC2CC3(C2)CN(C(=O)N2CC4(COC(=O)N4)C2)C3)c1C(F)(F)F [Example 352, 2-[6-[[1-methyl-5-(trifluoromethyl)pyrazol-4-yl]methyl]-2-azaspiro[3.3]heptane-2-carbonyl]-7-oxa-2,5-diazaspiro[3.4]octan-6-one]
10.00 | N#Cc1ccc(CC2CC3(C2)CN(C(=O)N2CC4(COC(=O)N4)C2)C3)cc1C(F)(F)F [Example 353]
9.55 | O=C1NC2(CO1)CN(C(=O)N1CC3(CC(Cc4ccc(C(F)(F)F)cn4)C3)C1)C2 [Example 354, 2-[6-[[5-(trifluoromethyl)-2-pyridyl]methyl]-2-azaspiro[3.3]heptane-2-carbonyl]-7-oxa-2,5-diazaspiro[3.4]octan-6-one]
9.72 | O=C1NC2(CO1)CN(C(=O)N1CC3(CC(Cc4ccc(OC(F)(F)F)nc4)C3)C1)C2 [Example 355, 2-[6-[[6-(trifluoromethoxy)-3-pyridyl]methyl]-2-azaspiro[3.3]heptane-2-carbonyl]-7-oxa-2,5-diazaspiro[3.4]octan-6-one]
9.70 | N=[S@](=O)(c1cccc(CC2CC3(C2)CN(C(=O)N2CC4(COC(=O)N4)C2)C3)c1)C(F)(F)F [Example 356, 2-[6-[3-(trifluoromethylsulfoni-midoyl)benzyl]-2-azaspiro[3.3]heptane-2-carbonyl]-7-oxa-2,5-diazaspiro[3.4]octan-6-one]
9.82 | N=[S@@](=O)(c1cccc(CC2CC3(C2)CN(C(=O)N2CC4(COC(=O)N4)C2)C3)c1)C(F)(F)F [Example 357, 2-[6-[3-(trifluoromethylsulfoni-midoyl)benzyl]-2-azaspiro[3.3]heptane-2-carbonyl]-7-oxa-2,5-diazaspiro[3.4]octan-6-one]
9.59 | N=[S@@](=O)(c1ccc(CC2CC3(C2)CN(C(=O)N2CC4(COC(=O)N4)C2)C3)cc1)C(F)(F)F [Example 358, 2-[6-[4-(trifluoromethylsulfoni-midoyl)benzyl]-2-azaspiro[3.3]heptane-2-carbonyl]-7-oxa-2,5-diazaspiro[3.4]octan-6-one]
9.49 | N=[S@](=O)(c1ccc(CC2CC3(C2)CN(C(=O)N2CC4(COC(=O)N4)C2)C3)cc1)C(F)(F)F [Example 359]
9.70 | O=C1CCC2(CN(C(=O)N3CC4(CC(Cc5cccc(S(=O)(=O)C(F)(F)F)c5)C4)C3)C2)N1 [Example 360, 2-[6-(3-triflylbenzyl)-2-azaspiro[3.3]heptane-2-carbonyl]-2,5-diazaspiro[3.4]octan-6-one]
8.24 | O=C1CCC2(CN(C(=O)N3CC4(CN(Cc5ccc(C(F)(F)F)cc5F)C4)C3)C2)N1 [Example 361, 2-[6-[2-fluoro-4-(trifluoromethyl)benzyl]-2,6-diazaspiro[3.3]heptane-2-carbonyl]-2,5-diazaspiro[3.4]octan-6-one]
7.11 | O=C1COCC2(CN(C(=O)N3CC4(CC(Cn5ncc(C(F)(F)F)n5)C4)C3)C2)N1 [Example 362, 2-[6-[[4-(trifluoromethyl)triazol-2-yl]methyl]-2-azaspiro[3.3]heptane-2-carbonyl]-8-oxa-2,5-diazaspiro[3.5]nonan-6-one]
7.26 | O=C1COCC2(CN(C(=O)N3CC4(CC(Cc5nc(C(F)(F)F)ns5)C4)C3)C2)N1 [Example 363, 2-[6-[[3-(trifluoromethyl)-1,2,4-thiadiazol-5-yl]methyl]-2-azaspiro[3.3]heptane-2-carbonyl]-8-oxa-2,5-diazaspiro[3.5]nonan-6-one]
7.56 | Cc1cc(C(F)F)n(CC2CC3(C2)CN(C(=O)N2CC4(COCC(=O)N4)C2)C3)n1 [Example 364, 2-[6-[[5-(difluoromethyl)-3-methyl-pyrazol-1-yl]methyl]-2-azaspiro[3.3]heptane-2-carbonyl]-8-oxa-2,5-diazaspiro[3.5]nonan-6-one]
7.39 | O=C1COCC2(CN(C(=O)N3CC4(CC(Cc5cnn(C(F)(F)F)c5)C4)C3)C2)N1 [Example 365, 2-[6-[[1-(trifluoromethyl)pyrazol-4-yl]methyl]-2-azaspiro[3.3]heptane-2-carbonyl]-8-oxa-2,5-diazaspiro[3.5]nonan-6-one]
7.65 | Cn1ncc(C(F)(F)F)c1CC1CC2(C1)CN(C(=O)N1CC3(COCC(=O)N3)C1)C2 [Example 366, 2-[6-[[2-methyl-4-(trifluoromethyl)pyrazol-3-yl]methyl]-2-azaspiro[3.3]heptane-2-carbonyl]-8-oxa-2,5-diazaspiro[3.5]nonan-6-one]
8.54 | Cn1nc(CC2CC3(C2)CN(C(=O)N2CC4(COCC(=O)N4)C2)C3)cc1C(F)(F)F [Example 367, 2-[6-[[1-methyl-5-(trifluoromethyl)pyrazol-3-yl]methyl]-2-azaspiro[3.3]heptane-2-carbonyl]-8-oxa-2,5-diazaspiro[3.5]nonan-6-one]
8.39 | Cn1ncc(CC2CC3(C2)CN(C(=O)N2CC4(COCC(=O)N4)C2)C3)c1C(F)(F)F [Example 368, 2-[6-[[1-methyl-5-(trifluoromethyl)pyrazol-4-yl]methyl]-2-azaspiro[3.3]heptane-2-carbonyl]-8-oxa-2,5-diazaspiro[3.5]nonan-6-one]
7.64 | O=C1COCC2(CN(C(=O)N3CC4(CC(Cc5nc(C(F)(F)F)cs5)C4)C3)C2)N1 [Example 369]
7.93 | Cn1cc(CC2CC3(C2)CN(C(=O)N2CC4(COCC(=O)N4)C2)C3)c(C(F)(F)F)n1 [Example 370, 2-[6-[[1-methyl-3-(trifluoromethyl)pyrazol-4-yl]methyl]-2-azaspiro[3.3]heptane-2-carbonyl]-8-oxa-2,5-diazaspiro[3.5]nonan-6-one]
8.04 | O=C1COCC2(CN(C(=O)N3CC4(CC(Cc5ncc(F)cc5F)C4)C3)C2)N1 [Example 371, 2-[6-[(3,5-difluoro-2-pyridyl)methyl]-2-azaspiro[3.3]heptane-2-carbonyl]-8-oxa-2,5-diazaspiro[3.5]nonan-6-one]
7.81 | O=C1COCC2(CN(C(=O)N3CC4(CN(Cc5ccc(C(F)(F)F)cc5F)C4)C3)C2)N1 [Example 372, 2-[6-[2-fluoro-4-(trifluoromethyl)benzyl]-2,6-diazaspiro[3.3]heptane-2-carbonyl]-8-oxa-2,5-diazaspiro[3.5]nonan-6-one]
7.23 | O=C1COCC2(CN(C(=O)N3CC4(CN(Cc5ccc(S(=O)(=O)C(F)(F)F)cc5F)C4)C3)C2)N1 [Example 373, 2-[6-(2-fluoro-4-triflyl-benzyl)-2,6-diazaspiro[3.3]heptane-2-carbonyl]-8-oxa-2,5-diazaspiro[3.5]nonan-6-one]
7.05 | CC(C)(C)c1coc(CN2CC3(C2)CN(C(=O)N2CC4(CCC(=O)N4)C2)C3)n1 [Example 374, 2-[6-[(4-tert-butyloxazol-2-yl)methyl]-2,6-diazaspiro[3.3]heptane-2-carbonyl]-2,5-diazaspiro[3.4]octan-6-one]
5.73 | O=C1CCC2(CN(C(=O)N3CC4(CN(Cc5ccc[nH]c5=O)C4)C3)C2)N1 [Example 375, 2-[6-[(2-keto-1H-pyridin-3-yl)methyl]-2,6-diazaspiro[3.3]heptane-2-carbonyl]-2,5-diazaspiro[3.4]octna-6-one]
